What was measured:
Assay type in all cases: cell-based
NIH-PPARγ cells = test: Adipocyte differentiation, oil red O staining, NIH-3T3 fibroblasts expressing PPARγ; conditions: 7 days; for % lipid containing cells: NIH-PPARγ cells, range over three experiments
Procedure: (§1) Simultaneous exposure of competent cells to both PPARγ and RXR-specific ligand was investigated to determine if such combination might provide a stronger adipogenic signal than a PPARγ ligand alone. The ability of the. […] It has previously been shown that wild-type NIH-3T3 cells express RXRα, but not PPARγ. NIH-vector and NIH-PPARγ cells were cultured as described in the Examples.

LS175 cells = test: Differentiation / lipid accumulation of primary human liposarcoma cells LS175; conditions: 10 μM, 7 days
Procedure: (§2) Liposarcomas have presumably acquired one or more genetic defects that interfere with the course of normal adipocyte development. The observation that PPARγ is expressed consistently in these tumors raised the possibility that the malignant cells might be forced to complete the differentiation program by maximally activating the PPARγ pathway. To address this possibility, primary cells isolated from three human liposarcomas were cultured in vitro. Primary cell strains LS857 and LS175 were derived from well differentiated liposarcomas and LS707 was derived from an intermediate grade myxoid/round cell liposarcoma (see Table 3). High grade pleomorphic liposarcoma cells could not be expanded to sufficient numbers to permit studies of differentiation. A primary leiomyosarcoma cell line LM203 was cultured as a control. To confirm that these cultures consisted of malignant tumor-derived cells, cytogenetic analysis was performed.
When cultured in the presence of fetal bovine serum and insulin, conditions permissive for adipocyte differentiation, all three cell lines maintain a fibroblastic morphology. LS175 cells contained small amounts of stainable lipid under these conditions. […] The degree of morphologically recognizable differentiation varied from 40% in the LS857 cells to 75% in the LS175 cells. […] […]. […]

NIH-vector cells = test: Adipocyte differentiation, oil red O staining, NIH-vector cells; conditions: 7 days; for % lipid containing cells: range over three experiments
Procedure: as §1, with “Examples. […] After an additional four days of culture, cells were fixed and stained with oil red O. Data are presented in Table 1 as the range of morphologically recognizable differentiation observed for each line over three separate experiments.” for “Examples.”

LS857 cells = test: Differentiation / lipid accumulation of primary human liposarcoma cells LS857; conditions: 7 days
Procedure: as §2
When cultured in the presence of fetal bovine serum and insulin, conditions permissive for adipocyte differentiation, all three cell lines maintain a fibroblastic morphology. LS175 cells contained small amounts of stainable lipid under these conditions. […] The degree of morphologically recognizable differentiation varied from 40% in the LS857 cells to 75% in the LS175 cells. […] This experiment was performed at least twice with each cell strain with quantitatively and qualitatively similar results.
The ability of LG268 to promote differentiation of human liposarcoma cells was then examined. […] To further characterize the effects of PPARγ and RXR ligands on liposarcoma cells, the expression of adipocyte-specific markers were examined by Northern blotting. LS857 cells, like the tumor from which they were derived, express PPARγ mRNA. Treatment of LS857 cells with pioglitazone leads to the induction of two markers of terminal adipocyte differentiation, the MRNAs encoding aP2 and adipsin. […]

Row | SMILES | % lipid containing cells (NIH-PPARγ cells; 1 μM pioglitazone alone) | degree of morphologically recognizable differentiation (LS175 cells) [%] | % lipid containing cells (NIH-vector cells; 1 μM pioglitazone alone) [%] | degree of morphologically recognizable differentiation (LS857 cells; LS857 cells, 10 μM) [%] | % lipid containing cells (NIH-PPARγ cells; 50 nM LG268 alone) | stimulation of adipocyte differentiation (in words) (NIH-PPARγ cells; confluent NIH-PPARγ cells, 50 nM LG268, 1 μM pioglitazone) | % lipid containing cells (NIH-vector cells; 50 nM LG268 alone) [%] | adipogenic effect (in words) (NIH-vector cells) | lipid accumulation, oil red O, macroscopic view of culture dishes (LS857 cells; LS857, 5 μM thiazolidinedione, 50 nM LG268, four more days of culture) | adipocyte differentiation (in words) (LS857 cells; LS857 cells, 50 nM LG268, 10 μM pioglitazone)
1 | CCc1ccc(CCOc2ccc(CC3SC(=O)NC3=O)cc2)nc1 (stereo not shown) [pioglitazone] | 60-70% | 75 | 0 | 40 |  |  |  |  |  | 
2 | Cc1cc2c(cc1C1(c3ccc(C(=O)O)cn3)CC1)C(C)(C)CCC2(C)C [LG268, 6-[1-(8 pentamethyl-5,6,7,8-tetrahydronaphthalen-2-yl)cyclopropyl]nicotinic acid] |  |  |  |  | 50-65% | significant stimulation of adipocyte differentiation | 0 | no effect | significant lipid accumulation | significant degree of adipocyte differentiation

From US6586455B1, “Treatment of liposarcomas using a combination of thiazolidinediones and retinoid X receptor selective agonists” (The Salk Institute for Biological Studies, priority 1996, dated 2003)
